pEC50, pKi: −log10 of the molar value. Where two headings read alike, the source gives them in different places.
Assays:
NS3/4A protease gt 1b = NS3/4A protease gt 1b (Hepatitis C virus genotype 1b, UniProt P26663); experiment: HCV NS3 protease time-resolved fluorescence (TRF) assay, NS3/4A inhibitory activity (Ki), gt 1b; type: biochemical; details: NS3/4A enzyme
Procedure: (§1) The HCV NS3 protease inhibitory activity of the present compounds may be tested using assays known in the art. One such assay is HCV NS3 protease time-resolved fluorescence (TRF) assay as described below and in WO 2006/102087. Other examples of such assays are described in, for example, WO 2005/046712. HCV NS3 protease inhibitors, such as those described herein have a Ki less than 50 μM, such as less than 10 μM, and less than 100 nM. Ki is determined by an NS3 protease assay. The assay is performed in a final volume of 100 μl in assay buffer containing 50 mM HEPES, pH 7.5, 150 mM NaCl, 15% glycerol, 0.15% TRITON X-100, 10 mM DTT, and 0.1% PEG 8000. NS3 protease is preincubated with various concentrations of inhibitors in DMSO for 30 minutes. The reaction is initiated by adding the TRF peptide substrate (final concentration 100 nM). NS3 mediated hydrolysis of the substrate is quenched after 1 hour at room temperature with 100 μl of 500 mM MES, pH 5.5. Product fluorescence is detected using either a VICTOR V2 or FUSION fluorophotometer (PERKIN ELMER LIFE AND ANALYTICAL SCIENCES) with excitation at 340 nm and emission at 615 nm with a 400 μs delay. Testing concentrations of different enzyme forms are selected to result in a signal to background ratio (SIB) of 10-30. IC50 values are derived using a standard four-parameter fit to the data. Ki values are derived from IC50 values using the following formula, IC50=Ki(1+[S]/KM), Eqn (1), where [S] is the concentration of substrate peptide in the reaction and KM is the Michaelis constant. See Paola Gallinari et al., Modulation of Hepatitis C Virus NS3 Protease and Helicase Activities through the Interaction with NS4A, 38 BIOCHEM. 5620 (1999); Paola Gallinari et al., Multiple Enzymatic Activities Associated with Recombinant NS3 Protein of Hepatitis C Virus, 72(8) J. VIROLOGY 6758 (1998); Mariana Taliani et al., A Continuous Assay of Hepatitis C Virus Protease Based on Resonance Energy Transfer Depsipeptide Substrates, 240 ANAL. BIOCHEM. 60 (1996).
(§2) This NS3 protease assay was performed in a final volume of 100 μl assay buffer containing 50 mM HEPES, pH 7.5, 150 mM NaCl, 15% glycerol, 0.15% TRITON X-100, 10 mM DTT, and 0.1% PEG 8000. NS3/4A protease was pre-incubated with various concentrations of inhibitors in DMSO for 30 minutes. The reaction was initiated by adding the TRF peptide substrate (final concentration 100 nM). NS3 mediated hydrolysis of the substrate was quenched after 1 hour at RT with 100 μl of 500 mM MES, pH 5.5. Product fluorescence was detected using either a V1CTOR V2 or FUSION fluorophotometer (PERKIN ELMER LIFE AND ANALYTICAL SCIENCES) with excitation at 340 nm and emission at 615 nm with a 400 us delay. Testing concentrations of different enzyme forms were selected to result in a signal to background ratio (SIB) of 10-30. IC50 values were derived using a standard four-parameter fit to the data. K, values are derived from IC50 values using the following formula, IC50=Ki(1+[S]/KM), Eqn (1), where [S] is the concentration of substrate peptide in the reaction and KM is the Michaelis constant. See Paola Gallinari et al., Modulation of Hepatitis C Virus NS3 Protease and Helicase Activities through the Interaction with NS4A, 38 BIOCHEM. 5620 (1999); Paola Gallinari et al., Multiple Enzymatic Activities Associated with Recombinant NS3 Protein of Hepatitis C Virus, 72(8) J. VIROLOGY 6758 (1998); Mariana Milani et al., A Continuous Assay of Hepatitis C Virus Protease Based on Resonance Energy Transfer Depsipeptide Substrates, 240 ANAL. BIOCHEM. 60 (1996); Shi-Shan Mao et al., A time-resolved, internally quenched fluorescence assay to characterize inhibition of hepatitis C virus nonstructural protein 3-4A protease at low enzyme concentrations, 373 ANALYTICAL BIOCHEMISTRY 1 (2008). Measuring Compound Inhibitory Potency (Replicon EC50 (nM))

[1] = target: NS3/4A protease gt 1b A156V (Hepatitis C virus genotype 1b, UniProt P26663, A1182V); experiment: HCV NS3 protease time-resolved fluorescence (TRF) assay, NS3/4A inhibitory activity (Ki), gt 1b A156V; type: biochemical
Procedure: as §1, §2

NS3/4A protease gt 3a = NS3/4A protease gt 3a (Hepatitis C virus genotype 3a, UniProt Q81258); experiment: HCV NS3 protease time-resolved fluorescence (TRF) assay, NS3/4A inhibitory activity (Ki), gt 3a; type: biochemical; details: NS3/4A enzyme
Procedure: as §1, §2

HCV gt 1b replicon = experiment: HCV replicon assay, compound inhibitory potency (Replicon EC50); type: cell-based; details: Hepatitis C virus, GT1B
Procedure: Measurement of inhibition by compounds was performed using the HCV replicon system. Several different replicons encoding different HCV genotypes or mutations were used. In addition, potency measurements were made using different formats of the replicon assay, including different ways of measurements and different plating formats. See Jan M. Vrolijk et al., A replicon-based bioassay for the measurement of interferons in patients with chronic hepatitis C, 110 J. VIROLOGICAL METHODS 201 (2003); Steven S. Carroll et al., Inhibition of Hepatitis C Virus RNA Replication by 2′-Modified Nucleoside Analogs, 278(14) J. BIOLOGICAL CHEMISTRY 11979 (2003). However, the underlying principles are common to all of these determinations, and are outlined below.
Stable neomycin phosphotransferase encoding replicon-harboring cell lines were used, so all cell lines were maintained under G418 selection prior to the assay. In some cases the cell lines encoded a luciferase:NEO FUSION and could be assayed either directly by determination of RNA copy number, or indirectly through measurement of the luciferase activity.
To initiate an assay, replicon cells were plated in the presence of a dilution series of test compound in the absence of G418. Typically, the assays were performed in a 96-well plate format for manual operation, or a 384-well plate in an automated assay. Replicon cells and compound were incubated for 24 to 48 hours, depending on the assay. At the end of the assay, cells are washed free of media and compound and then lysed. For direct quantitation, RNA levels were measured by 32P-probe hybridization and protection, or in a TAQMAN-based assay and normalized to cellular cyclophilin A RNA levels. In some cases, luciferase activity was measured using a conventional luciferase assay. In all cases, EC50 determinations were calculated as a percent of a DMSO control by fitting the data to a four-parameter fit function.

[2] = Plasma and liver concentrations and pharmacokinetics (Rat PK); type: in vivo; set-up: Rat PK 5 mpk AUC: unit not given here; details: for concentration at 4 h: 5 mg/kg, 5 mpk, liver concentration at 4 h; for Rat PK 5 mpk AUC: area under the plasma concentration/time curve
Procedure: Test compounds were dissolved in a suitable dosing vehicle for i.v. administration (e.g., 20%:60%:20% DMSO:PEG400:H2O) or per oral administration (e.g., 10% POLYSORBATE80:90% H2O or 100% PEG400). Animals were administered (n=2 or 3) using a crossover study design for non-rodents. Plasma samples were collected at time points between 2 minutes and 24 hours, and compound levels were determined by RP-LC/MS/MS. Liver samples were collected post-mortem in rat. Liver samples were weighed, homogenized, and diluted using techniques known to those skilled in the art, and compound levels were determined by RP-LC/MS/MS.
Pharmacokinetic parameters were calculated based on non-compartmental analysis (e.g., using WATSON, WINNOLIN). Predose concentrations that were below the limit of quantitation (BLQ) were assigned a value of 0, Standard pharmacokinetic parameters CLp, Vdss, half-life (only for IV), % F, Cmax, Tmax, AUC0-last, AUC0-infinity were calculated. AUC values were calculated using linear trapezoidal method for ascending concentrations and the log trapezoidal method for descending concentrations.

[3] = 10% fetal bovine serum, read-out: gt 1b Replicon EC50 10% FBS
[4] = 50% normal human serum, read-out: gt 1b Replicon EC50 50% NHS

| Structure (SMILES) | pKi (NS3/4A protease gt 1b) | pKi [1] | pKi (NS3/4A protease gt 3a) | pEC50 (HCV gt 1b replicon; [3]) | pEC50 (HCV gt 1b replicon; [4]) | concentration at 4 h [2] [µM] | Rat PK 5 mpk AUC [2] |
| --- | --- | --- | --- | --- | --- | --- | --- |
| CC1(S(=O)(=O)NC(=O)[C@@]23C[C@H]2/C=C\CCCCC[C@@H]2NC(=O)O[C@@H]4CCC[C@H]4CCCCCc4nc5ccccc5nc4O[C@@H]4C[C@@H](C(=O)N3)N(C4)C2=O)CC1 [Example 7, (3R,20R,24R,28S,34Z,36S,38R,41S)—N-[(1-Methylcyclopropyl)sulfonyl]-26,40,42-trioxo-4,25-dioxa-1,6,13,27,39-pentaazaheptacyclo[26.13.1.1^3,41.0^5,14.0^7,12.0^20,24.0^36,38]tritetraconta-5,7,9,11,13,34-hexaene-38-carboxamide] | 10.70 | 8.92 | 9.14 | 8.70 | 8.00 | 41 | 1.35 |
| O=C1N[C@H]2CCCCC/C=C\[C@@H]3C[C@@]3(C(=O)NS(=O)(=O)C3CC3)NC(=O)[C@@H]3C[C@H](CN3C2=O)Oc2nc3ccccc3nc2CCCCC[C@@H]2C[C@H]2O1 [Example 8, (3R,20R,22R,26S,32Z,34S,36R,39S)—N-(Cyclopropylsulfonyl)-24,38,40-trioxo-4,23-dioxa-1,6,13,25,37-pentaazaheptacyclo[24.13.1.1^3,39.0^5,14.0^7,12.0^20,22.0^34,36]hentetraconta-5,7,9,11,13,32-hexaene-36-carboxamide] | 10.70 | 9.05 | 9.31 | 9.00 | 7.89 | 7 | 0.06 |
| CC1(S(=O)(=O)NC(=O)[C@@]23C[C@H]2/C=C\CCCCC[C@@H]2NC(=O)O[C@@H]4C[C@H]4CCCCCc4nc5ccccc5nc4O[C@@H]4C[C@@H](C(=O)N3)N(C4)C2=O)CC1 [Example 9, (3R,20R,22R,26S,32Z,34S,36R,39S)—N-[(1-Methylcyclopropyl)sulfonyl]-24,38,40-trioxo-4,23-dioxa-1,6,13,25,37-pentaazaheptacyclo[24.13.1.1^3,39.0^5,14.0^7,12.0^20,22.0^34,36]hentetraconta-5,7,9,11,13,32-hexaene-36-carboxamide] | 10.52 | 9.10 | 9.28 | 8.70 | 7.96 | 20 | 0.26 |
| C[C@@]12C[C@H]1CCCCCc1nc3ccccc3nc1O[C@@H]1C[C@H]3C(=O)N[C@]4(C(=O)NS(=O)(=O)C5CC5)C[C@H]4/C=C\CCCCC[C@H](NC(=O)O2)C(=O)N3C1 [Example 10, (3R,20R,22R,26S,32Z,34S,36R,39S)—N-(Cyclopropylsulfonyl)-22-methyl-24,38,40-trioxo-4,23-dioxa-1,6,13,25,37-pentaazaheptacyclo[24.13.1.1^3,39.0^5,14.0^7,12.0^20,22.0^34,36]hentetraconta-5,7,9,11,13,32-hexaene-36-carboxamide] | 10.70 | 9.22 | 9.46 | 9.00 | 8.30 | 15 | 0.6 |
| CC1(S(=O)(=O)NC(=O)[C@@]23C[C@H]2/C=C\CCCCC[C@@H]2NC(=O)O[C@]4(C)C[C@H]4CCCCCc4nc5ccccc5nc4O[C@@H]4C[C@@H](C(=O)N3)N(C4)C2=O)CC1 [Example 11, (3R,20R,22R,26S,32Z,34S,36R,39S)-22-Methyl-N-[(1-methylcyclopropyl)sulfonyl]-24,38,40-trioxo-4,23-dioxa-1,6,13,25,37-pentaazaheptacyclo[24.13.1.1^3,39.0^5,14.0^7,12.0^20,22.0^34,36]hentetraconta-5,7,9,11,13,32-hexaene-36-carboxamide] | 10.70 | 9.30 | 9.43 | 9.00 | 8.30 | 4 | 0.07 |
